From US5508384A, “Polypeptide derived from a popamine receptor, and compositions and methods thereof” (New York University, priority 1993, dated 1996)

Key:
[1] = tested on: norepinephrine receptor sites in thalamic and hypothalamic areas; conditions: cited from earlier work
[2] = tested on: dopamine receptor sites in the basal ganglia; conditions: cited from earlier work
[3] = basal ganglia, thalamic and hypothalamic areas; cited from earlier work
[4] = Radioligand binding assay, polypeptide in DMPC small unilamellar vesicles; conditions: lipid:peptide 147:1, 1 h at 25° C., pH 7.4, FIG. 7
Method: Preparation of Small Unilamellar Visicles. Polypeptides were incorporated into DMPC vesicles at lipid:peptide ratio of 147:1 in the followinq manner: polypept ide in HFIP was mixed with dimyrystyroyl-phosphatidylcholine (synthetic) (DMPC) in dry chloroform and dried to a film with a stream of dry nitrogen at 0° C. This residue was then dried further overnight under a vacuum (1×10^-2 torr). The residue was then hydrated in […] and sonicated for a 30-min period under nitrogen at 0° C. The suspension was sedimented for a 30-min at 100,000 q (4° C.) to remove any residual titanium particles and large unilamellar vesicles The supernatant was removed and sedimented once more at 159,000 g for a 45 min period at 4° C. The supernatant in the lower portion was used immediately.
Radioligand Bining Assays. A 0.50 mL volume of 1.00 nM [^3 H]-spiperone(New England specific activity […]) was added to assay tubes which contained 0.5 mL lipid/peptide supernatant, 0.5 mL Tris buffer pH 7.4 and 0.5 mL of cold drug for a final volume of 2.0 mL. […]
Filters were then washed with 6.0 mL of cold 50 mM Tris-HCl buffer, pH 7.40. For detection of radioactivity, filters were placed in 2.0 mL of scintillation fluid (Scintiverse) and incubated for 24 h. The activity of the tritium was determined in a Beckman LS 7500 liquid scintillation counter. […]

[5] = Circular dichroism, helical content; format: physicochemical; conditions: solvent system in which most membrane polypeptides are strongly helical; FIG. 6
Method: Circular Dichroism (CD). Spectra were recorded on an Aviv model 60 DS circular dichroism spectrophotometer at room temperature with a 1 cm by 1 mm cell. The amplitude of the CD signal was calibrated using 10.1% (w/v) solution of d (+)-camphorsulfonic acid (Aldrich) and the wavelength of the CD signal was set using standard absorbance peaks of benzene vapor. Polypeptide ccncentrations were determined in a Cary 210 UV spectrophotomer wwith the absorbance measured at 280 nm. Helical content was estimated using CD signal intensity according to the method of Chen. et al Biochem. 13:[…] (1974). This calculation compares the experimental ellipticity at. 222 nm ( [θ]222) ( [θ]) to a theoretical [θ]222. The theoretical [θ]222 is empirically adjusted to account for differences in polypeptide length and is based on experimental CD data from a series of proteins with known crystal structures. Since both the curve shape and magnitude are important in analysis of a CD spectrum for secondary structure contributions, we also considered qualitatively the contributions to the spectral shapes from different secondary structures using reference curves for poly (L-lysine).

[6] = in vivo; cited from earlier work

O=C(CCCN1CCC(O)(c2ccc(Cl)cc2)CC1)c1ccc(F)cc1 [Haloperidol]
Blocks NE [1]: Yes+ | Blocks DA [2]: Yes++++

CN1CCN(CC/C=C2/c3ccccc3Sc3ccc(S(=O)(=O)N(C)C)cc32)CC1 [Thiothixene]
Blocks NE [1]: Yes+++ | Blocks DA [2]: Yes+

COC(=O)[C@H]1[C@H]2C[C@@H]3c4[nH]c5cc(OC)ccc5c4CCN3C[C@H]2C[C@@H](OC(=O)c2cc(OC)c(OC)c(OC)c2)[C@@H]1OC [Reserpine]
concentrations of norepinephrine and dopamine [3]: reduces

CN(C)CCCN1c2ccccc2Sc2ccc(Cl)cc21 [Chlorpromazine]
Blocks NE [1]: Yes++ | Blocks DA [2]: Yes++

Polypeptide III: consensus peptide of the dopamine D2 receptor transmembrane domains I-VII (DYAIFVLYASAWLSFNCPFIVTLNIK)
binding of [^3 H]-spiperone (receptor-like functional binding) [4]: binding to the neuroleptic agent, spiperone, into a stereoselective, concentration-dependent manner | helical structure from CD spectrum [5]: only partially helical

CN1CCN(C2=Nc3cc(Cl)ccc3Nc3ccccc32)CC1 [clozapine]
motor side effects [6]: apparently capable of producing less motor side effects
